Like-named read-outs stand apart in the source and are kept apart here. Marks after values point to notes of the source that are not given here.
Key:
Septoria tritici = assay: Test J: wheat leaf blotch, preventive spray on wheat seedlings; type: in vivo; conditions: for pest or weed control at 200 ppm / pest or weed control at 40 ppm: Zymoseptoria tritici, 528 h, read-out: Test J disease control rating
Excerpt: A dash (-) indicates no test results.

Septoria nodorum = assay: Test H: wheat glum blotch, preventive spray on wheat seedlings; conditions: for pest or weed control at 200 ppm / pest or weed control at 40 ppm: Parastagonospora nodorum, in Triticum aestivum, topical, 168 h; for pest or weed control at 200 ppm: read-out: Test H disease control rating, 200 ppm
Procedure: (the causal agent of wheat glum blotch) and incubated in a saturated atmosphere at 20° C. for 48 h, and then moved to a growth chamber at 22° C. for 5 days, after which disease ratings were made.

Plasmopara viticola = assay: Test D: grape downy mildew, spray after inoculation of grape seedlings; type: in vivo; conditions: for pest or weed control at 200 ppm / pest or weed control at 40 ppm: Plasmopara viticola, 168 h, read-out: Test D disease control rating
Excerpt: Upon removal, disease ratings were made. […] A dash (-) indicates no test results.

Rhizoctonia oryzae = assay: Test G: turf brown patch, preventive spray on creeping bent grass seedlings; conditions: for pest or weed control at 200 ppm / pest or weed control at 40 ppm: Waitea circinata, in Agrostis stolonifera, topical, 144 h; for pest or weed control at 200 ppm: read-out: Test G disease control rating, 200 ppm
Procedure: (the causal agent of turf brown patch) and incubated in a saturated atmosphere at 27° C. for 24 h, and then moved to a growth chamber at 27° C. for 5 days, after which disease ratings were made.

[1] = tested on: Puccinia recondita f. sp. tritici; assay: Test K: wheat leaf rust, preventive spray on wheat seedlings; conditions: for pest or weed control at 200 ppm / pest or weed control at 40 ppm: Puccinia recondita, in Triticum aestivum, 192 h, read-out: Test K disease control rating
fusarium graminearium = assay: Test I: wheat head scab, preventive spray on wheat seedlings; conditions: for pest or weed control at 200 ppm / pest or weed control at 40 ppm: Fusarium, in Triticum aestivum, topical, 192 h; for pest or weed control at 200 ppm: read-out: Test I disease control rating, 200 ppm; for Test I disease control rating: 200 ppm
Procedure: (the causal agent of wheat head scab) and incubated in a saturated atmosphere at 20° C. for 72 h, and then moved to a growth chamber at 22° C. for 5 days, after which disease ratings were made.

Botrytis cinerea = assay: Test E: tomato botrytis, preventive spray on tomato seedlings; conditions: for pest or weed control at 200 ppm / pest or weed control at 40 ppm: Botrytis cinerea, in Solanum lycopersicum, topical, 72 h, read-out: Test E disease control rating
Phytophthora infestans = assay: whole plant or invertebrate; type: in vivo; conditions: for pest or weed control at 200 ppm / pest or weed control at 40 ppm: Phytophthora infestans, in Solanum lycopersicum, topical, 144 h, read-out: Test F disease control rating; for Test F disease control rating: 200 ppm
[2] = tested on: Erysiphe graminis f. sp. tritici; assay: Test L: wheat powdery mildew, preventive spray on wheat seedlings; conditions: for pest or weed control at 200 ppm / pest or weed control at 40 ppm: Blumeria graminis, in Triticum aestivum, 168 h; for pest or weed control at 200 ppm: read-out: Test L disease control rating, 200 ppm
[3] = tested on: Colletotrichum orbiculare; assay: Test B: cucumber Colletotrichum anthracnose, preventive spray on cucumber seedlings; conditions: for pest or weed control at 200 ppm / pest or weed control at 40 ppm: Colletotrichum orbiculare, in Cucumis sativus, 144 h; for pest or weed control at 200 ppm: read-out: Test B disease control rating, 200 ppm; for Test B disease control rating: 40 ppm (marked *)
Pythium aphanidermatum = assay: Test A: bluegrass pythium blight, preventive spray on bluegrass seedlings; conditions: for pest or weed control at 200 ppm / pest or weed control at 40 ppm: Pythium aphanidermatum, 120 h, read-out: Test A disease control rating; for Test A disease control rating: 200 ppm
[4] = read-out: Test H disease control rating, 40 ppm (*)
[5] = read-out: Test G disease control rating, 40 ppm (*)
[6] = read-out: Test I disease control rating, 40 ppm (*)
[7] = read-out: Test L disease control rating, 40 ppm (*)
[8] = read-out: Test B disease control rating, 40 ppm (*)
[9] = 100 = 100% disease control, 0 = no control
[10] = 40 ppm (marked *), 100 = 100% disease control, 0 = no control
[11] = 100 = 100% disease control, 0 = no control relative to controls

CC(C)Cn1c(-c2c(F)cccc2F)c(Br)nc(-n2cccn2)c1=O [Compound 99, 5-Bromo-6-(2,6-difluorophenyl)-1-(2-methylpropyl)-3-(1H-pyrazol-1-yl)-2(1H)-pyrazinone]
pest or weed control at 200 ppm (Septoria tritici): 100%
pest or weed control at 200 ppm (Septoria nodorum): 100%
pest or weed control at 200 ppm (Plasmopara viticola; 200 ppm): 0%
pest or weed control at 200 ppm (Rhizoctonia oryzae): 82%
pest or weed control at 200 ppm [1]: 100%
pest or weed control at 200 ppm (fusarium graminearium): 0%
pest or weed control at 200 ppm (Botrytis cinerea): 100%
pest or weed control at 200 ppm (Phytophthora infestans): 0%
pest or weed control at 200 ppm [2]: 100%
pest or weed control at 200 ppm [3]: 99%
pest or weed control at 200 ppm (Pythium aphanidermatum): 0%

O=c1c(-n2cccn2)nc(Cl)c(-c2c(F)cccc2F)n1-c1ccccc1 [Compound 161, 5-Chloro-6-(2,6-difluorophenyl)-1-phenyl-3-(1H-pyrazol-1-yl)-2(1H)-pyrazinone]
pest or weed control at 40 ppm (Septoria tritici; 40 ppm (*)): 97%
pest or weed control at 40 ppm (Septoria nodorum; [4]): 100%
pest or weed control at 40 ppm (Plasmopara viticola; 40 ppm (*)): 0%
pest or weed control at 40 ppm (Rhizoctonia oryzae; [5]): 68%
pest or weed control at 40 ppm [1]: 100%
pest or weed control at 40 ppm (fusarium graminearium; [6]): 69%
pest or weed control at 40 ppm (Botrytis cinerea): 100%
pest or weed control at 40 ppm (Phytophthora infestans): 0%
pest or weed control at 40 ppm [2, 7]: 90%
pest or weed control at 40 ppm [3, 8]: 77%
pest or weed control at 40 ppm (Pythium aphanidermatum): 0%

CCC(C)Cn1c(-c2ccc(F)cc2Cl)c(Cl)nc(-n2ccc(C)n2)c1=O (stereo not shown) [Compound 170, 5-Chloro-6-(2-chloro-4-fluorophenyl)-1-(2-methylbutyl)-3-(3-methyl-1H-pyrazol-1-yl)-2(1H)-pyrazinone]
pest or weed control at 40 ppm (Septoria tritici; 40 ppm (*)): 100%
pest or weed control at 40 ppm (Septoria nodorum; [4]): 100%
pest or weed control at 40 ppm (Plasmopara viticola; 40 ppm (*)): 0%
pest or weed control at 40 ppm (Rhizoctonia oryzae; [5]): 26%
pest or weed control at 40 ppm [1]: 100%
pest or weed control at 40 ppm (fusarium graminearium; [6]): 0%
pest or weed control at 40 ppm (Botrytis cinerea): 100%
pest or weed control at 40 ppm (Phytophthora infestans): 0%
pest or weed control at 40 ppm [2, 7]: 99%
pest or weed control at 40 ppm [3, 8]: 100%
pest or weed control at 40 ppm (Pythium aphanidermatum): 0%

CCC(C)Cn1c(-c2c(F)cccc2F)c(Cl)nc(C(N)=O)c1=O (stereo not shown) [Compound 298, 6-Chloro-5-(2,6-difluorophenyl)-3,4-dihydro-4-(2-methylbutyl)-3-oxopyrazinecarboxamide]
pest or weed control at 200 ppm (Septoria tritici; [9]): 100%
pest or weed control at 200 ppm (Septoria nodorum; [9]): 99%
pest or weed control at 200 ppm (Plasmopara viticola; 200 ppm, 100 = 100% disease control, 0 = no control): 85%
pest or weed control at 200 ppm (Rhizoctonia oryzae; [9]): 78%
pest or weed control at 200 ppm [1]: 100%
pest or weed control at 200 ppm (fusarium graminearium; [9]): 96%
pest or weed control at 200 ppm (Botrytis cinerea): 99%
pest or weed control at 200 ppm (Phytophthora infestans): 100%
pest or weed control at 200 ppm [2, 9]: 89%
pest or weed control at 200 ppm [3, 9]: 66%
pest or weed control at 200 ppm (Pythium aphanidermatum): 88%

O=c1c(-n2cccn2)nc(Cl)c(-c2c(F)cc(F)cc2F)n1-c1cccc(F)c1 [Compound 324, 5-Chloro-1-(3-fluorophenyl)-3-(1H-pyrazol-1-yl)-6-(2,4,6-trifluorophenyl)-2(1H)-pyrazinone]
pest or weed control at 40 ppm (Septoria tritici; [10]): 100%
pest or weed control at 40 ppm (Septoria nodorum; read-out: Test H disease control rating, 40 ppm (marked *), 100 = 100% disease control, 0 = no control): 100%
pest or weed control at 40 ppm (Plasmopara viticola; [10]): 0%
pest or weed control at 40 ppm (Rhizoctonia oryzae; read-out: Test G disease control rating, 40 ppm (marked *), 100 = 100% disease control, 0 = no control): 97%
pest or weed control at 40 ppm [1]: 100%
pest or weed control at 40 ppm (fusarium graminearium; read-out: Test I disease control rating, 40 ppm (marked *), 100 = 100% disease control, 0 = no control): 49%
pest or weed control at 40 ppm (Botrytis cinerea): 99%
pest or weed control at 40 ppm (Phytophthora infestans): 0%
pest or weed control at 40 ppm ([2]; read-out: Test L disease control rating, 40 ppm (marked *), 100 = 100% disease control, 0 = no control): 100%
pest or weed control at 40 ppm ([3]; read-out: Test B disease control rating, 40 ppm (marked *), 100 = 100% disease control, 0 = no control): 99%
pest or weed control at 40 ppm (Pythium aphanidermatum): 0%

CCC(C)c1c(Cl)nc(-n2cccn2)c(=O)n1CC(C)C (stereo not shown) [Compound 424, 5-Chloro-6-(1-methylpropyl)-1-(2-methylpropyl)-3-(1H-pyrazol-1-yl)-2(1H)-pyrazinone]
pest or weed control at 40 ppm (Septoria tritici; [10]): 37%
pest or weed control at 200 ppm (Septoria nodorum; [11]): 0%
pest or weed control at 200 ppm (Plasmopara viticola; 200 ppm, 100 = 100% disease control, 0 = no control relative to controls): 0%
pest or weed control at 200 ppm (Rhizoctonia oryzae; [11]): 99%
pest or weed control at 200 ppm [1]: 100%
pest or weed control at 200 ppm (fusarium graminearium; [11]): 0%
pest or weed control at 200 ppm (Botrytis cinerea): 96%
pest or weed control at 200 ppm (Phytophthora infestans): 0%
pest or weed control at 200 ppm [2, 11]: 100%
pest or weed control at 200 ppm [3, 11]: 0%
pest or weed control at 200 ppm (Pythium aphanidermatum): 0%

CC(C)(C)Cn1c(-c2c(F)cccc2F)c(Cl)nc(-n2cccn2)c1=O [compound 59]
Test J disease control rating (Septoria tritici; 40 ppm (*)): 100* %
Test H disease control rating (Septoria nodorum; 40 ppm (*)): 73* %
Test D disease control rating (Plasmopara viticola; 200 ppm): 0%
Test G disease control rating (Rhizoctonia oryzae; 40 ppm (*)): 49* %
Test K disease control rating ([1]; 40 ppm (*)): 94* %
Test I disease control rating (fusarium graminearium): 0%
Test E disease control rating (Botrytis cinerea; 40 ppm (*)): 100* %
Test F disease control rating (Phytophthora infestans): 0%
Test L disease control rating ([2]; 40 ppm (*)): 98* %
Test A disease control rating (Pythium aphanidermatum): 0%

O=c1c(-n2cccn2)nc(Cl)c(-c2c(F)cccc2F)n1-c1ccccc1OC(F)(F)F [compound 397]
Test J disease control rating (Septoria tritici; [10]): 94* %
Test H disease control rating (Septoria nodorum; [10]): 94* %
Test G disease control rating (Rhizoctonia oryzae; [10]): 0* %
Test K disease control rating [1, 10]: 80* %
Test I disease control rating (fusarium graminearium; [11]): 0%
Test E disease control rating (Botrytis cinerea; [10]): 99* %
Test F disease control rating (Phytophthora infestans; [11]): 0%
Test L disease control rating [2, 10]: 0* %
Test B disease control rating [3, 9]: 37* %
Test A disease control rating (Pythium aphanidermatum; [11]): 0%

O=c1c(-n2cccn2)nc(Cl)c(-c2c(F)cccc2F)n1-c1ccc(OC(F)(F)F)cc1 [compound 398]
Test J disease control rating (Septoria tritici; [10]): 97* %
Test H disease control rating (Septoria nodorum; [10]): 75* %
Test G disease control rating (Rhizoctonia oryzae; [10]): 24* %
Test K disease control rating [1, 10]: 97* %
Test I disease control rating (fusarium graminearium; [11]): 0%
Test E disease control rating (Botrytis cinerea; [10]): 98* %
Test F disease control rating (Phytophthora infestans; [11]): 0%
Test L disease control rating [2, 10]: 78* %
Test B disease control rating [3, 9]: 56* %
Test A disease control rating (Pythium aphanidermatum; [11]): 0%

O=c1c(-n2cccn2)nc(Cl)c(-c2c(F)cccc2F)n1-c1ccccc1C(F)(F)F [compound 399]
Test J disease control rating (Septoria tritici; [10]): 100* %
Test H disease control rating (Septoria nodorum; [10]): 90* %
Test G disease control rating (Rhizoctonia oryzae; [10]): 24* %
Test K disease control rating [1, 10]: 99* %
Test I disease control rating (fusarium graminearium; [11]): 0%
Test E disease control rating (Botrytis cinerea; [10]): 97* %
Test F disease control rating (Phytophthora infestans; [11]): 0%
Test L disease control rating [2, 10]: 93* %
Test B disease control rating [3, 9]: 88* %
Test A disease control rating (Pythium aphanidermatum; [11]): 0%
